In ChEMBL document CHEMBL4651402, “Screening of ~5500 FDA-approved drugs and clinical candidates for anti-SARS-CoV-2 activity” (2021):

Tested on: SARS-CoV-2
Experiment: microbe, parasite or virus in culture
Conditions: Severe acute respiratory syndrome coronavirus 2, Vero C1008, 48 h

Compound	IC50 [µM]	IC50 (read-out: pIC50 (converted)) [µM]
O=C(N[C@@H]1CC[C@@H](c2cccc(F)c2F)CN(CC(F)(F)F)C1=O)N1CCC(n2c(=O)[nH]c3ncccc32)CC1 [TELCAGEPANT]	> 20	> 20
Cc1scc2c1N(C(=O)CN1CCN(C)CC1)c1ccccc1NC2=O [TELENZEPINE]	> 20	> 20
CCOC(=O)[C@@H](N)Cc1ccc(-c2cc(O[C@H](c3ccc(Cl)cc3-n3ccc(C)n3)C(F)(F)F)nc(N)n2)cc1 [TELOTRISTAT ETHYL]	> 20	> 20
Cc1ccn(-c2cc(Cl)ccc2[C@@H](Oc2cc(-c3ccc(C[C@H](N)C(=O)O)cc3)nc(N)n2)C(F)(F)F)n1 [TELOTRISTAT]	> 20	> 20
CC1CN(c2cc3c(cc2F)c(=O)c(C(=O)O)cn3-c2ccc(F)cc2F)CCN1 (stereo not given) [TEMAFLOXACIN]	> 20	> 20
CN1C(=O)C(O)N=C(c2ccccc2)c2cc(Cl)ccc21 (stereo not given) [TEMAZEPAM]	> 20	> 20
CCOC(=O)[C@H](CCc1ccccc1)N[C@H]1CS[C@H](c2cccs2)CN(CC(=O)O)C1=O [TEMOCAPRIL]	> 20	> 20
Cn1nnc2c(C(N)=O)ncn2c1=O [TEMOZOLOMIDE]	> 20	> 20
CC1(C)CC(O)CC(C)(C)N1[O] [TEMPOL]	> 20	> 20
CO[C@H]1C[C@@H]2CC[C@@H](C)[C@@](O)(O2)C(=O)C(=O)N2CCCC[C@H]2C(=O)O[C@H]([C@H](C)C[C@@H]2CC[C@@H](OC(=O)C(C)(CO)CO)[C@H](OC)C2)CC(=O)[C@H](C)/C=C(\C)[C@@H](O)[C@@H](OC)C(=O)[C@H](C)C[C@H](C)/C=C/C=C/C=C/1C [TEMSIROLIMUS]	> 20	> 20
COc1ccc2[nH]c([S+]([O-])Cc3ncc(C)c(OC)c3C)nc2n1 (stereo not given) [TENATOPRAZOLE]	> 20	> 20
Cc1cc(N2CCN([C@@H]3CN[C@H](C(=O)N4CCSC4)C3)CC2)n(-c2ccccc2)n1 [TENELIGLIPTIN]	> 20	> 20
NC(=O)N1C(=O)/C(=C(\O)c2cccs2)c2cc(Cl)ccc21 [TENIDAP]	> 20	> 20
CN1CCN(C2=Nc3cscc3/C(=C/C#N)c3cscc32)CC1 [TENILAPINE]	> 20	> 20
COc1cc([C@@H]2c3cc4c(cc3[C@@H](O[C@@H]3O[C@@H]5CO[C@@H](c6cccs6)O[C@H]5[C@H](O)[C@H]3O)[C@H]3COC(=O)[C@H]23)OCO4)cc(OC)c1O [TENIPOSIDE]	> 20	> 20
CC(C)OC(=O)[C@H](C)N[P@](=O)(CO[C@H](C)Cn1cnc2c(N)ncnc21)Oc1ccccc1 [TENOFOVIR ALAFENAMIDE]	> 20	> 20
C[C@H](Cn1cnc2c(N)ncnc21)OCP(=O)(O)O [TENOFOVIR ANHYDROUS]	> 20	> 20
CC(C)OC(=O)OCOP(=O)(CO[C@H](C)Cn1cnc2c(N)ncnc21)OCOC(=O)OC(C)C [TENOFOVIR DISOPROXIL]	> 20	> 20
CCCCCCCCCCCCCCCCOCCCOP(=O)(O)CO[C@H](C)Cn1cnc2c(N)ncnc21 [TENOFOVIR EXALIDEX]	> 20	> 20
CN1C(C(=O)Nc2ccccn2)=C(O)c2sccc2S1(=O)=O [TENOXICAM]	> 20	> 20
COc1ccc(-n2nc(CCC(=O)N(C)O)cc2-c2ccc(Cl)cc2)cc1 [TEPOXALIN]	> 20	> 20
COc1cc2nc(N3CCN(C(=O)C4CCCO4)CC3)nc(N)c2cc1OC (stereo not given) [TERAZOSIN]	> 20	> 20
CN(C/C=C/C#CC(C)(C)C)Cc1cccc2ccccc12 [TERBINAFINE]	> 20	> 20
CC(C)(C)NCC(O)c1cc(O)cc(O)c1 (stereo not given) [TERBUTALINE]	> 20	> 20

Compound	IC50 [µM]	IC50 (read-out: pIC50 (converted)) [µM]
C/C(O)=C(\C#N)C(=O)Nc1ccc(C(F)(F)F)cc1 [TERIFLUNOMIDE]	> 20	> 20
O=C1NOCC1/N=C/c1ccc(/C=N/C2CONC2=O)cc1 (stereo not given) [TERIZIDONE]	> 20	> 20
O=c1n(CC2CO2)c(=O)n(CC2CO2)c(=O)n1CC1CO1 (stereo not given) [TEROXIRONE]	> 20	> 20
CCO[C@@H](Cc1ccc(OCCc2ccc(OS(C)(=O)=O)cc2)cc1)C(=O)O [TESAGLITAZAR]	> 20	> 20
CCCCNc1ccc(C(=O)OCCN(C)C)cc1 [TETRACAINE]	> 20	> 20
CN(C)[C@@H]1C(O)=C(C(N)=O)C(=O)[C@@]2(O)C(O)=C3C(=O)c4c(O)cccc4[C@@](C)(O)[C@H]3C[C@@H]12 [TETRACYCLINE]	> 20	> 20
COc1ccc2c(c1OC)CN1CCc3cc4c(cc3C1C2)OCO4 (stereo not given) [TETRAHYDROBERBERINE]	> 20	> 20
CC1NCCc2c1[nH]c1ccccc21 (stereo not given) [TETRAHYDROHARMAN]	> 20	> 20
O=C1NC(O)CCN1[C@@H]1O[C@H](CO)[C@@H](O)[C@H]1O (stereo not given in full) [TETRAHYDROURIDINE]	> 20	> 20
c1ccc2c(c1)CCCC2C1=NCCN1 (stereo not given) [TETRAHYDROZOLINE]	> 20	> 20
O=C1C(O)=C(O)C(=O)C(O)=C1O [TETROQUINONE]	> 20	> 20
COCCOc1c(OC)cc(Cc2cnc(N)nc2N)cc1OC [TETROXOPRIM]	> 20	> 20
CNc1c2c(nn1C)CCCC2 [TETRYDAMINE]	> 20	> 20
Nc1nc(N)c2nc(-c3cccc(O)c3)c(-c3cccc(O)c3)nc2n1 [TG100-115]	> 20	> 20
O=C1CCC(N2C(=O)c3ccccc3C2=O)C(=O)N1 (stereo not given) [THALIDOMIDE]	> 20	> 20
O=C(O[C@@H]1Cc2c(O)cc(O)cc2O[C@@H]1c1cc(O)c(=O)c2c(O)c(O)cc([C@H]3Oc4cc(O)cc(O)c4C[C@H]3OC(=O)c3cc(O)c(O)c(O)c3)c2c1)c1cc(O)c(O)c(O)c1 [THEAFLAVIN DIGALLATE]	> 20	> 20
O=C(O[C@@H]1Cc2c(O)cc(O)cc2O[C@@H]1c1cc(O)c(=O)c2c(O)c(O)cc([C@H]3Oc4cc(O)cc(O)c4C[C@H]3O)c2c1)c1cc(O)c(O)c(O)c1 [THEAFLAVIN MONOGALLATES]	> 20	> 20
O=c1c(O)cc([C@H]2Oc3cc(O)cc(O)c3C[C@H]2O)cc2c([C@H]3Oc4cc(O)cc(O)c4C[C@H]3O)cc(O)c(O)c12 [THEAFLAVIN]	> 20	> 20
CN1CCC(N(Cc2cccs2)c2ccccc2)CC1 [THENALIDINE]	> 20	> 20
Cn1cnc2c1c(=O)[nH]c(=O)n2C [THEOBROMINE]	> 20	> 20
Cn1c(=O)c2c(ncn2CCOC(=O)C(C)(C)Oc2ccc(Cl)cc2)n(C)c1=O [THEOFIBRATE]	> 20	> 20
Cn1c(=O)c2nc[nH]c2n(C)c1=O [THEOPHYLLINE]	> 20	> 20
c1ccc2[nH]c(-c3cscn3)nc2c1 [THIABENDAZOLE]	> 20	> 20
C=CCC1(C2C=CCCC2)C(=O)NC(=S)NC1=O (stereo not given) [THIALBARBITAL]	> 20	> 20

Compound	IC50 [µM]	IC50 (read-out: pIC50 (converted)) [µM]
Cc1ncc(C[n+]2csc(CCO)c2C)c(N)n1 [THIAMINE ION]	> 20	> 20
Cn1cnc([N+](=O)[O-])c1Sc1nc(N)nc2[nH]cnc12 [THIAMIPRINE]	> 20	> 20
CS(=O)(=O)c1ccc([C@@H](O)[C@@H](CO)NC(=O)C(Cl)Cl)cc1 [THIAMPHENICOL]	> 20	> 20
C=CCC1(C(C)CCC)C(=O)NC(=S)NC1=O (stereo not given) [THIAMYLAL]	> 20	> 20
CN(C)CCN1C(=O)CC(c2ccccc2)Sc2ccccc21 (stereo not given) [THIAZESIM]	> 20	> 20
CCSc1ccc2c(c1)N(CCCN1CCN(C)CC1)c1ccccc1S2 [THIETHYLPERAZINE]	> 20	> 20
COc1c(O[C@@H]2O[C@H](CO)[C@@H](O)[C@H](O)[C@H]2O)cc2c(c1OC)-c1ccc(SC)c(=O)cc1[C@@H](NC(C)=O)CC2 [THIOCOLCHICOSIDE]	> 20	> 20
NC(=O)CCCCC1CCSS1 (stereo not given) [THIOCTIC ACID AMIDE]	> 20	> 20
Nc1nc2[nH]cnc2c(=S)[nH]1 [THIOGUANINE]	> 20	> 20
Nc1nc(=S)c2ncn([C@@H]3O[C@H](CO)[C@@H](O)[C@H]3O)c2[nH]1 [THIOGUANOSINE]	> 20	> 20
CCCC(C)C1(CC)C(=O)NC(=S)NC1=O (stereo not given) [THIOPENTAL]	> 20	> 20
S=C(NC1CCCCC1)N1CCC(c2cnc[nH]2)CC1 [THIOPERAMIDE]	> 20	> 20
O=C(O)[C@@H]1CSCN1 [THIOPROLINE]	> 20	> 20
CC(=O)OCCN1CCN(CCCN2c3ccccc3Sc3ccc(Cl)cc32)CC1 [THIOPROPAZATE]	> 20	> 20
O=C(O)CNC(=O)C(CS)Cc1ccccc1 (stereo not given) [THIORPHAN]	> 20	> 20
O=C(O)c1ccccc1S [THIOSALICYLIC ACID]	> 20	> 20
CNc1ccc(-c2ccc3cc(OC[C@H](O)CF)ccc3n2)cn1 [THK-5351]	> 20	> 20
CCCCCCCCCCCCCCCC[N+](C)(C)CCN(Cc1ccc(OC)cc1)c1ncccn1 [THONZONIUM]	> 20	> 20
COc1ccc(CN(CCN(C)C)c2ncccn2)cc1 [THONZYLAMINE]	> 20	> 20
C[C@@H](O)[C@H](N)C(=O)O [THREONINE]	> 20	> 20
Cc1ccc(C(C)C)c(O)c1 [THYMOL]	> 20	> 20
CC1=CC(=O)C(C(C)C)=CC1=O [THYMOQUINONE]	> 20	> 20
